Data published in patent US11479539B2, “Small molecule modulators of the BTB domain of Keap1” (MedImmune Limited, priority 2017, dated 2022).

Biological target: Keap1 (Homo sapiens (Human), UniProt Q14145)
Assay: HEK293 ARE luciferase assay
Type: cell-based
Settings: HEK-293 ARE firefly luciferase transiently transfected cells; 18 h incubation; mean of 1 to 20 individual measurements
In short: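 Keap1 inhibition read as Nrf2-driven luciferase rise: compounds dosed in 10 points up to 100 μM (0.3% DMSO) on HEK-293 ARE luciferase cells, 10,000/well, 18 h at 37 °C, then SteadyGlo luminescence. Scaled between DMSO vehicle and 30 μM tBHQ; values average 1-20 runs.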

Sequence of Keap1 (Q14145 whole entry): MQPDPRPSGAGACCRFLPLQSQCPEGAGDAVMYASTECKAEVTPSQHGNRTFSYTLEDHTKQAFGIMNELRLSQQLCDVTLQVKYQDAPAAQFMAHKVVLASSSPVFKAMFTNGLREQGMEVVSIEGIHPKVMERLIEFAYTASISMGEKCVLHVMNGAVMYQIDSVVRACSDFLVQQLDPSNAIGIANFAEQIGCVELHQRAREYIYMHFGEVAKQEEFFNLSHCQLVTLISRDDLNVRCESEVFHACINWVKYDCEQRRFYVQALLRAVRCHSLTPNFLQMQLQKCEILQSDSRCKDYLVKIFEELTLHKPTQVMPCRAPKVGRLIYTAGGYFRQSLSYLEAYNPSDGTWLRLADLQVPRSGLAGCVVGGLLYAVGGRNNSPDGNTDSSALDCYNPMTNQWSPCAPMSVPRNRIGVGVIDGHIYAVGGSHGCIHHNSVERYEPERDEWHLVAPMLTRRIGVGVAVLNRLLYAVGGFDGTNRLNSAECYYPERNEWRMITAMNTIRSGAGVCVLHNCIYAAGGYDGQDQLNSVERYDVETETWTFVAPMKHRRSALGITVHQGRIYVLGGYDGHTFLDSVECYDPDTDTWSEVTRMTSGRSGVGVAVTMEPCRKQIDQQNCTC

SMILES | EC50
COC1(c2ncc(F)cc2-c2cccnc2C)C=C(C#N)C(=O)C(C)(C)C1 (single isomer, unassigned) [Compound 79, 3-[5-fluoro-3-(2-methyl-3-pyridyl)-2-pyridyl]-3-methoxy-5,5-dimethyl-6-oxo-cyclohexene-1-carbonitrile] | 74 nM
COC1(c2cccc(-n3ccnc3C)n2)C=C(C#N)C(=O)C(C)(C)C1 (stereo not drawn) [Compound 12, 3-methoxy-5,5-dimethyl-3-[6-(2-methylimidazol-1-yl)-2-pyridyl]-6-oxo-cyclohexene-1-carbonitrile] | 119 nM
COC1(c2cccnc2-c2cnn(C)c2)C=C(C#N)C(=O)C(C)(C)C1 (stereo not drawn) [Compound 25, 3-methoxy-5,5-dimethyl-3-[2-(1-methylpyrazol-4-yl)-3-pyridyl]-6-oxo-cyclohexene-1-carbonitrile] | 70 nM
COC1(c2ncc(F)cc2-c2cncc(S(=O)(=O)C(C)C)c2)C=C(C#N)C(=O)C(C)(C)C1 (single isomer, unassigned) [Compound 221, 3-{5-fluoro-5′-[(propan-2-yl)sulfonyl][3,3′-bipyridin]-2-yl}-3-methoxy-5,5-dimethyl-6-oxocyclohex-1-ene-1-carbonitrile] | 8 nM
CO[C@]1(c2ncc(Cl)cn2)C=C(C#N)C(=O)C(C)(C)C1 [Compound 214, (3S)-3-(5-chloropyrimidin-2-yl)-3-methoxy-5,5-dimethyl-6-oxocyclohex-1-ene-1-carbonitrile] | 20 nM
COC1(c2ccccn2)C=C(C#N)C(=O)C2(CC2)C1 (single isomer, unassigned) [Compound 56, 7-methoxy-4-oxo-7-(pyridin-2-yl)spiro[2.5]oct-5-ene-5-carbonitrile] | 179 nM
COC1(c2ncc(F)cc2-c2cnn(-c3ccccc3)c2)C=C(C#N)C(=O)C(C)(C)C1 (single isomer, unassigned) [Compound 81, 3-[5-fluoro-3-(1-phenylpyrazol-4-yl)-2-pyridyl]-3-methoxy-5,5-dimethyl-6-oxo-cyclohexene-1-carbonitrile] | 2 nM
COC1(c2ncccc2C(F)F)C=C(C#N)C(=O)C(C)(C)C1 (single isomer, unassigned) [Compound 5, 3-(3-(difluoromethyl)pyridin-2-yl)-3-methoxy-5,5-dimethyl-6-oxocyclohex-1-enecarbonitrile] | 10 nM
COC1(c2cccc(N3CCOCC3)n2)C=C(C#N)C(=O)C(C)(C)C1 (stereo not drawn) [Compound 110, 3-methoxy-5,5-dimethyl-3-[6-(morpholin-4-yl)pyridin-2-yl]-6-oxocyclohex-1-ene-1-carbonitrile] | 109 nM
COC1(c2ncc(F)cc2C(F)F)C=C(C#N)C(=O)C(C)(C)C1 (stereo not drawn) [Compound 152, 3-[3-(difluoromethyl)-5-fluoropyridin-2-yl]-3-methoxy-5,5-dimethyl-6-oxocyclohex-1-ene-1-carbonitrile] | 47 nM
COC1(c2ncc(C)cn2)C=C(C#N)C(=O)C(C)(C)C1 (single isomer, unassigned) [Compound 204, 3-methoxy-5,5-dimethyl-3-(5-methylpyrimidin-2-yl)-6-oxocyclohex-1-ene-1-carbonitrile] | 9 nM
COC1(c2ncc(F)cc2-c2cccnc2C)C=C(C#N)C(=O)C(C)(C)C1 (stereo not drawn) [Compound 177, 3-(5-fluoro-2′-methyl[3,3′-bipyridin]-2-yl)-3-methoxy-5,5-dimethyl-6-oxocyclohex-1-ene-1-carbonitrile] | 103 nM
